Laboratory results as given in patent publication US9018255B2, “Esters of (acyloxymethyl)acrylamide, a pharmaceutical composition containing them, and their use as inhibitors of the thioredoxin—thioredoxin reductase system” (Instytut Chemii Organicznej Polskiej Akademii Nauk, priority 2010, dated 2015).
Entries after “also recorded” stand apart in the source; their conditions may differ. Read-outs that look alike come from different tables or passages of the source. Values belong to the molecule of their own block, whether it stands above or below them.

Tests used:
[1] = tested on: EMT6 (murine breast cancer); test: Cytostatic/cytotoxic activity, EMT6; type: cell-based; conditions: for LD50 of the evaluated compound: EMT6, after 72 h of incubation
Procedure: (§1) The cytostatic/cytotoxic activity was evaluated using the following lines of tumour cells: EMT6 (murine breast cancer), PANC02 (murine pancreatic cancer), B78 (murine melanoma), C-26 (murine colon cancer), K562 (human chronic myelogenic leukaemia), T24 (human bladder cancer), RAJI (human Burkitt's lymphoma), Ramos (human Burkitt's lymphoma). The cultures were maintained in the following media: DMEM (EMT6, PANC02, B78), RPMI (C-26, Raji, Ramos), IMDM (K562), McCoy's (T24) with an addition of 10% bovine serum (Invitrogen) and antibiotics (Sigma).
(§2) To determine cytostatic/cytotoxic activity of the evaluated compounds, cell cultures were initiated in 96-well plates. After 24 h, inhibitors were added at set concentrations. The results were determined using colorimetric methods following 72 hours of incubation.

B78 (murine melanoma) = test: Cytostatic/cytotoxic activity, B78; type: cell-based; conditions: B78, after 72 h of incubation
Procedure: as §1
as §2, with “incubation. To determine cytostatic/cytotoxic activity, crystal violet dyeing was used (reading at 595 nm) or MTT (Sigma; reading at 570 nm).” for “incubation.”

glutathione reductase [2] = target: T1, glutathione reductase (Homo sapiens (Human), UniProt P00390); test: Glutathione reductase activity, DTNB chromogenic assay (Glutathione Reductase Assay Kit); type: biochemical; conditions: for IC50: read-out: IC50 of glutathione reductase activity inhibition; for inhibition of glutathione reductase activity: even at a concentration of 100 μM
T1 sequence (P00390 44-522): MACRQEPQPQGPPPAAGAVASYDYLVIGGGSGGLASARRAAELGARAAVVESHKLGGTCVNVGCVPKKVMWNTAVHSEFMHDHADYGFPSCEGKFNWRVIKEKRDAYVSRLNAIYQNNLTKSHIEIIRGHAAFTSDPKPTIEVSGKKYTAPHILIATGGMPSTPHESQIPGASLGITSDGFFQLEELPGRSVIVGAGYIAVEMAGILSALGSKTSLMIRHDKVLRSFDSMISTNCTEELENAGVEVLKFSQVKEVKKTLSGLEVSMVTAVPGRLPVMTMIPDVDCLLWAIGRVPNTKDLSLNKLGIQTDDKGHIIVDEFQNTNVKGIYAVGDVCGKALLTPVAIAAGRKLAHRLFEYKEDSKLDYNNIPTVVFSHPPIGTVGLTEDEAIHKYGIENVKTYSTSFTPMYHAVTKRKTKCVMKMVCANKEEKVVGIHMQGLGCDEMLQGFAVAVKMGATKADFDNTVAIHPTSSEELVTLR
Procedure: The spatial structures of the active centres of glutathione reductase and the enzymes of the Trx-TrxR system show a high similarity. […] The reactions for determining the activity of recombinant human glutathione reductase made use of a chromogenic reaction with 5,5′-dithiobis-2-nitrobenzoic acid, like in the case of thioredoxin reductase. Activity was determined after 5 and 10 min incubation at room temperature.

[3] = tested on: T24 (human bladder cancer); test: Cytostatic/cytotoxic activity, T24; type: cell-based; conditions: T24, after 72 h of incubation
Procedure: as §1
as §2, with “incubation. To determine cytostatic/cytotoxic activity, crystal violet dyeing was used (reading at 595 nm) or MTT (Sigma; reading at 570 nm).” for “incubation.”

[4] = tested on: C-26 (murine colon cancer); test: Cytostatic/cytotoxic activity, C-26; type: cell-based; conditions: C-26, after 72 h of incubation
Procedure: as §1
as §2, with “incubation. To determine cytostatic/cytotoxic activity, crystal violet dyeing was used (reading at 595 nm) or MTT (Sigma; reading at 570 nm).” for “incubation.”

[5] = target: rat recombinant thioredoxin reductase (Rattus norvegicus (Rat), UniProt O89049); test: Thioredoxin reductase activity, DTNB chromogenic assay (Thioredoxin Reductase Assay Kit); type: biochemical; conditions: for IC50: read-out: IC50 of thioredoxin reductase activity inhibition
Sequence of rat recombinant thioredoxin reductase (O89049 whole entry): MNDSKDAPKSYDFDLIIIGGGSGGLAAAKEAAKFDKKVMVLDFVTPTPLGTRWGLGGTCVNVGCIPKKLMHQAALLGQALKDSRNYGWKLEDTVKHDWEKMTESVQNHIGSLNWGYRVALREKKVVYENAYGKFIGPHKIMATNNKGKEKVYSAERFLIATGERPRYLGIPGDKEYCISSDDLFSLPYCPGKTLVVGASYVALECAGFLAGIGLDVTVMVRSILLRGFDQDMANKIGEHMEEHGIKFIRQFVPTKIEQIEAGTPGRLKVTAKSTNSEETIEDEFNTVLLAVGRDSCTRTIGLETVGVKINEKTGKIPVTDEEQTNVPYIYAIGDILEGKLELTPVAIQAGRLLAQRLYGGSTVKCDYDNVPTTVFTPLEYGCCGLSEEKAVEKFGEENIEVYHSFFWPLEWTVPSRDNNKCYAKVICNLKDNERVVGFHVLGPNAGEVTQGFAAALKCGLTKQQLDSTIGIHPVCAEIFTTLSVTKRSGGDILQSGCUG
Procedure: Reactions in which the activity of recombinant rat thioredoxin reductase was determined made use of a chromogenic reaction with 5,5′-dithiobis-2-nitrobenzoic acid.

[6] = tested on: RAJI (human Burkitt's lymphoma); test: Cytostatic/cytotoxic activity, RAJI; type: cell-based; conditions: after 72 h of incubation
Procedure: as §1
as §2, with “incubation. To determine cytostatic/cytotoxic activity, crystal violet dyeing was used (reading at 595 nm) or MTT (Sigma; reading at 570 nm).” for “incubation.”

[7] = tested on: panel of human and murine lines of tumour cells; test: Cytostatic/cytotoxic activity against panel of tumour cell lines (FIG. 1); type: cell-based; conditions: in words
Procedure: The cytostatic/cytotoxic activity against adherent cells, from solid tumours cells (EMT6, PAN02, CT26 and T24) was evaluated using the crystalline violet test, whereas against suspension-grown cells of the MTT line. b.d.=no data.
as §1
as §2, with “incubation. To determine cytostatic/cytotoxic activity, crystal violet dyeing was used (reading at 595 nm) or MTT (Sigma; reading at 570 nm).” for “incubation.”

[8] = tested on: PANC02 (murine pancreatic cancer); test: Cytostatic/cytotoxic activity, PANC02; type: cell-based; conditions: PANC02, after 72 h of incubation
Procedure: as §1
as §2, with “incubation. To determine cytostatic/cytotoxic activity, crystal violet dyeing was used (reading at 595 nm) or MTT (Sigma; reading at 570 nm).” for “incubation.”

[9] = tested on: Ramos (human Burkitt's lymphoma); test: Cytostatic/cytotoxic activity, Ramos; type: cell-based; conditions: after 72 h of incubation
Procedure: as §1
as §2, with “incubation. To determine cytostatic/cytotoxic activity, crystal violet dyeing was used (reading at 595 nm) or MTT (Sigma; reading at 570 nm).” for “incubation.”

T24 cells = test: Cell cycle analysis by flow cytometry (propidium iodide); type: cell-based, human; conditions: T24, 72 hours of incubation
Description: The cell cycle is composed of a series of events leading to cell division. In the cell cycle we differentiate the following phases: G1 (interval between divisions), S (duplication of genetic material) and G2/M (division or mitosis). An analysis of the cel cycle using a flow-through cytometer makes it possible to determine the percentage of cells in each of the phases. Furthermore, the percentage of cells in the so-called subG1 phase: those, whose genetic material has degraded as a result of apoptosis or necrosis.
The cells were stained with propidium iodide at […] and analysed with flow-through cytometry. The percentage of dividing cells duplicating their genetic material (S phase) is clearly lower after incubation with inhibitors of thioredoxin.

[10] = target: human recombinant thioredoxin (Homo sapiens (Human), UniProt P10599); test: Thioredoxin activity, insulin reduction / DTNB assay with recombinant enzymes; type: biochemical; conditions: for thioredoxin activity inhibition in comparison to PX-12: in words; for IC50: 37° C., 30 min, 0.25 μM thioredoxin, 0.325 μM thioredoxin reductase, read-out: IC50 of thioredoxin inhibition
Sequence of human recombinant thioredoxin (P10599 whole entry): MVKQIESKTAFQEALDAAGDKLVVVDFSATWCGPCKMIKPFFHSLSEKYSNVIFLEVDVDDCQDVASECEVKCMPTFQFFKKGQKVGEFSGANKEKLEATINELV
Procedure: The method of determining thioredoxin activity is based on the reduction of insulin by thioredoxin. Thioredoxin is reconstituted is by thioredoxin reductase, with NADPH. The resulting free thiol —SH groups react with 5,5′-dithiobis-2-nitrobenzoic acid (DTNB). The termination of the reaction results in the formation of a […] colour. The intensity of colouration is determined spectrophotometrically at 412 nm and this corresponds to the number of reduced sulfahydryl groups. The reaction was performed at 37° C. over 30 min. in a buffer containing 50 mM Tris-HCl and 20 mM EDTA at a pH of 7.6. The substrate concentrations used were: 0.25 μM human recombinant thioredoxin and 0.325 μM rat recombinant thioredoxin reductase (IMCO Corporation Ltd AB, Sweden) and 316 μM of insulin, 0.8 μM NADPH, 8 mM DTNB (Sigma Aldrich).

[11] = tested on: K562 (human chronic myelogenic leukaemia); test: Cytostatic/cytotoxic activity, K562; type: cell-based; conditions: K562, after 72 h of incubation
Procedure: as §1
as §2, with “incubation. To determine cytostatic/cytotoxic activity, crystal violet dyeing was used (reading at 595 nm) or MTT (Sigma; reading at 570 nm).” for “incubation.”

glutathione reductase [12] = target: T1, glutathione reductase; conditions: literature (Gromer et al. 1998); cited from earlier work
thioredoxin reductase = thioredoxin reductase (Homo sapiens (Human), UniProt Q16881); conditions: literature (Gromer et al. 1998); cited from earlier work
Sequence of thioredoxin reductase (Q16881 151-649): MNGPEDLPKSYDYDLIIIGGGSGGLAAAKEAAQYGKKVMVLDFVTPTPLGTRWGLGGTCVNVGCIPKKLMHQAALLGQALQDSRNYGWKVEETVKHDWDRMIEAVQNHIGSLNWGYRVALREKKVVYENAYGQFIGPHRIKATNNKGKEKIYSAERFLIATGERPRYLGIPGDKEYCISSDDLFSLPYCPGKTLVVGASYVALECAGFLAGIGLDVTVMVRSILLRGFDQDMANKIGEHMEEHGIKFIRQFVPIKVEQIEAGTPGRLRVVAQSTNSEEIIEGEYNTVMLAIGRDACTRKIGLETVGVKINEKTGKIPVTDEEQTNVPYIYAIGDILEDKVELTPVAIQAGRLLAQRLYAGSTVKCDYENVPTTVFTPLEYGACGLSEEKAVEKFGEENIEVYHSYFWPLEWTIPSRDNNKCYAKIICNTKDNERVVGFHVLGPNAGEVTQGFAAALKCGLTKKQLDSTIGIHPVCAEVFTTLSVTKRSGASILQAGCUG

SMILES: C=C(COC(=O)c1c(C(F)(F)F)cccc1C(F)(F)F)C(=O)NC(CC(C)C)C(=O)NCC(=O)OCC (racemic) [Compound 3a, 2-((1-((2-ethoxy-2-oxoethyl)amino)-4-methyl-1-oxopentan-2-yl)carbamoyl)allyl 2,6-bis(trifluoromethyl)benzoate]
- cytostatic/cytotoxic activity in comparison to PX-12 ([1]; EMT6): over two times more active
- LD50 of the evaluated compound [1]: 5.3 µM
- LD50 of the evaluated compound (B78 (murine melanoma)): 4.3 µM
- IC50 (glutathione reductase [2]; 5 min from reaction onset): > 100 µM
- IC50 (glutathione reductase [2]; 10 min from reaction onset): > 100 µM
- inhibition of glutathione reductase activity (glutathione reductase [2]): None
- LD50 of the evaluated compound [3]: 5.1 µM
- LD50 of the evaluated compound [4]: 3.2 µM
- IC50 ([5]; 5 min from reaction onset): 37.1 µM
- IC50 ([5]; 15 min from reaction onset): > 40 µM
- inhibition of thioredoxin reductase activity ([5]; in words): slightly inhibited
- thioredoxin reductase activity inhibition in comparison to PX-12 ([5]; in words): about three times less; also recorded: IC50 nearly three times higher
- LD50 of the evaluated compound [6]: 4.6 µM
- cytostatic/cytotoxic activity [7]: comparable
- LD50 of the evaluated compound [8]: 3.2 µM
- LD50 of the evaluated compound [9]: 3.3 µM
- percentage of dividing cells duplicating their genetic material (S phase) (T24 cells): clearly lower
- thioredoxin activity inhibition in comparison to PX-12 [10]: concentrations smaller than compound PX-12; also recorded: three times stronger
- LD50 of the evaluated compound [11]: 3.8 µM

- IC50 [10]: 2.9 µM
- thioredoxin IC50, times lower than for PX-12 ([10]; ratio to PX-12): about 5 times
SMILES: C=C(COC(=O)c1c(Cl)cccc1Cl)C(=O)NC(CC(C)C)C(=O)NCC(=O)OCC (racemic) [Compound 3b, 2-((1-((2-ethoxy-2-oxoethyl)amino)-4-methyl-1-oxopentan-2-yl)carbamoyl)allyl 2,6-dichlorobenzoate]
- cytostatic/cytotoxic activity [7]: strong cytostatic/cytotoxic activity
- thioredoxin activity inhibition in comparison to PX-12 [10]: concentrations smaller than compound PX-12

- IC50 (glutathione reductase [2]; 5 min from reaction onset): > 100 µM
- IC50 (glutathione reductase [2]; 10 min from reaction onset): > 100 µM
- IC50 ([5]; 5 min from reaction onset): > 40 µM
- IC50 ([5]; 15 min from reaction onset): > 40 µM
SMILES: C=C(COC(=O)c1c(C(F)(F)F)cccc1C(F)(F)F)C(=O)NCc1ccccc1 [Compound 8a, 2-(benzylcarbamoyl)allyl 2,6-bis(trifluoromethyl)benzoate]
- cytostatic/cytotoxic activity [7]: strong cytostatic/cytotoxic activity

- IC50 (glutathione reductase [2]; 5 min from reaction onset): > 100 µM
- IC50 (glutathione reductase [2]; 10 min from reaction onset): > 100 µM
- inhibition of glutathione reductase activity (glutathione reductase [2]): None
- IC50 ([5]; 5 min from reaction onset): > 40 µM
- IC50 ([5]; 15 min from reaction onset): > 40 µM
- IC50 [10]: 5.9 µM
- selectivity as thioredoxin inhibitor in comparison to PX-12 ([10]; from Tables 1, 2 and 3): considerably more selective
SMILES: C=C(COC(=O)c1c(Cl)cccc1Cl)C(=O)NCc1ccccc1 [Compound 8b, 2-(benzylcarbamoyl)allyl 2,6-dichlorobenzoate]
- cytostatic/cytotoxic activity [7]: strong cytostatic/cytotoxic activity
- thioredoxin activity inhibition in comparison to PX-12 [10]: concentrations smaller than compound PX-12

SMILES: C=C(COC(=O)c1c(C(F)(F)F)cccc1C(F)(F)F)C(=O)N[C@H](CC(C)C)C(=O)NCC(=O)OCC [Compound D-3a, (R)-2-((1-((2-ethoxy-2-oxoethyl)amino)-4-methyl-1-oxopentan-2-yl)carbamoyl)allyl 2,6-bis(trifluoromethyl)benzoate]
- cytostatic/cytotoxic activity [7]: strong cytostatic/cytotoxic activity
- thioredoxin activity inhibition in comparison to PX-12 [10]: concentrations smaller than compound PX-12

SMILES: C=C(COC(=O)c1c(C(F)(F)F)cccc1C(F)(F)F)C(=O)N[C@@H](CC(C)C)C(=O)NCC(=O)OCC [Compound L-3a, (S)-2-((1-((2-ethoxy-2-oxoethyl)amino)-4-methyl-1-oxopentan-2-yl)carbamoilo)allyl 2,6-bis(trifluoromethyl)benzoate]
- cytostatic/cytotoxic activity [7]: strong cytostatic/cytotoxic activity
- thioredoxin activity inhibition in comparison to PX-12 [10]: concentrations smaller than compound PX-12

SMILES: CCC(C)SSc1ncc[nH]1 (stereo not drawn) [PX-12, 1-methylpropyl-2-imidazole disulphide, reference compound]
- LD50 of the evaluated compound [1]: 12.7 µM
- LD50 of the evaluated compound (B78 (murine melanoma)): 5.3 µM
- IC50 (glutathione reductase [2]; 5 min from reaction onset): 19.8 µM
- IC50 (glutathione reductase [2]; 10 min from reaction onset): 28.6 µM
- LD50 of the evaluated compound [3]: 4.5 µM
- LD50 of the evaluated compound [4]: 5.4 µM
- LD50 of the evaluated compound [6]: 5.9 µM
- LD50 of the evaluated compound [8]: 3.8 µM
- LD50 of the evaluated compound [9]: 3.7 µM
- percentage of dividing cells duplicating their genetic material (S phase) (T24 cells): clearly lower
- LD50 of the evaluated compound [11]: 4.9 µM

SMILES: CC[P](CC)(CC)=[Au][S]C1OC(OC(C)=O)C(OC(C)=O)C(OC(C)=O)C1OC(C)=O (stereo not drawn) [auranofin]
- concentrations inhibiting glutathione reductase (glutathione reductase [12]): micromolar levels
- concentrations inhibiting thioredoxin reductase (thioredoxin reductase): nanomolar concentrations
